A short description of data set [1]: Pharmacokinetic determination in mice (PO 5 mg/kg, IV 1 mg/kg). The data set is classed as in vivo, C57BL/6J mice. To be noted: male, C57BL/6J, mouse, plasma, C57 mice, PO administration, 5 mpk; for AUC(0-inf): read-out: Area under the curve AUC0-∞; for half-life: read-out: Half-life t1/2 (converted); for MRT: read-out: Mean residence time MRT; for Cmax: read-out: Plasma concentration Cmax; for Tmax: read-out: Time to peak tmax. In outline: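 Fasted male C57BL/6J mice (n=3 per route) dosed PO 5 mg/kg in 10% Solutol HS15 or IV 1 mg/kg in 5% DMSO/10% Solutol HS15/85% PBS. Orbital blood sampled 0.083 (IV) to 24 h; plasma measured by LC-MS/MS, parameters by WinNonlin.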

The subject of data set [2] is hyperlipidemia animal model of B6-hPCSK9 transgenic mice. Briefly: In vivo pharmacodynamic study in hyperlipidemia model of B6-hPCSK9 transgenic mice (LDL-C, TC, plasma PCSK9). To be noted: PO administration, Day 14, B6-hPCSK9 transgenic mice on high-fat feed, normalized to vehicle group. Also noted: species or system B6-hPCSK9 transgenic C57 mice. On the procedure:
1. Experimental objective: The compounds of the present disclosure were evaluated for in vivo pharmacodynamics in a hyperlipidemia animal model of B6-hPCSK9 transgenic mice.
2.1 Animals: B6-hPCSK9 transgenic C57 mice, 6-8 weeks old, male, purchased from Jiangsu GemPharmatech Co., Ltd.
2.2 Animal model: After delivery to a barrier system, the animals were given one week for acclimatization and began to feed on the high-fat feed. The body weight and feed weight were weighed once a week, and the body weight and food intake thereof were recorded.
2.3 Grouping and administration • a. The animals were grouped by a random grouping method. • c. According to the grouping results, administration with the test drug was started (mode of administration: oral administration; administration volume: 10 mL/kg; frequency of administration: once/day or single administration; administration cycle: 21 days; vehicle: 10% Solutol HS 15/90% Saline). Test drug: Compounds of the present disclosure, made in house. • d. After the test drug was administered, the body weight and feed weight were weighed twice a week and blood was taken once a week. • e. The data was processed with software such as Excel. […] PCSK9 in plasma was detected by ELISA.

Data set [3] can be described thus: In vitro metabolic stability in human liver microsomes. To be noted: pH 7.4. The data set is classed as in vitro ADME. On the procedure:
1. Experimental objective: The purpose of this experiment was to evaluate the metabolic stability of the compounds in phase I and partially phase II in mouse, rat and human liver microsomes, respectively.
2.1 Drug preparation: 10 mM stock solution of the compound of the present disclosure was prepared in DMSO (or other suitable solution) and stored in a −20° C. refrigerator for later use. The compound of the present disclosure was made in house.
2.2 Experimental steps • 1) Preparation of buffer: 4.01 mL of 1 M K2HPO4·3H2O (AR grade) and 0.99 mL of 1 M KH2PO4 (AR grade) were dissolved in ultrapure water and the volume was adjusted to 50 mL to prepare a phosphate buffer with a final concentration of 100 mM. • 2) Preparation of compound working solution: Preparation of compound working solution: 2 μL of the compound stock solution was added to 998 μL of phosphate buffer to a final concentration of 20 μM. According to the properties of the compound, the preparation proportions could be adjusted appropriately to adjust the final concentration. • 3) Preparation of liver microsome working solution: 156.3 μL of 20 mg/mL microsomes were diluted to 5 mL with 100 mM phosphate buffer, and the mixture was mixed well to reach a final concentration of 0.625 mg/mL. • 4) Preparation of NADPH and UDPGA: 33.3 mg of NADPH and 25.8 mg of UDPGA were weighed and added to 2 mL of 100 mM phosphate buffer to reach a final concentration of 20 mM. • 5) Preparation of pore-forming agent (Alamethicin): 1 mg of Alamethicin was weighed and added to 200 μL of methanol to prepare a 5 mg/mL solution. 10 μL of the solution was taken and added to 990 μL phosphate buffer (pH 7.4) to reach a final concentration of 50 μg/mL. • 6) Preparation of reaction stop solution: The internal standard was diluted with acetonitrile (or other suitable solution) to use as a stop solution and stored in a 2° C.-8° C. refrigerator. • 7) Incubation process: 400 μL of the prepared liver microsomes, 25 μL of the compound working solution (20 μM) and 25 μL of Alamethicin (50 μg/mL) were successively added to the 96-well plate, and the mixture was pre-incubated at 37° C. for 10 min. Then, 50 μL of prepared NADPH/UDPGA was added to start the reaction, and the mixture was incubated at 37° C. The total volume of the reaction system was 500 μL. The final contents of each component were as follows:
50 μL of samples were taken at 0, 5, 15, 30, 60 and 120 min, respectively, 200 μL of a cold stop solution containing the internal standard was added to stop the sample reaction, the mixture was centrifuged at 3500 rpm for 10 min, and the supernatant was taken and analyzed by LC-MS/MS.
Instruments: Shimadzu LC-20 AD; Chromatographic column: Phenomenex Gamin® C18 (50*4.6 mm, 5 μm particle size); mobile phase: A: 0.1% aqueous formic acid, B: acetonitrile; Elution gradient: 0.2-1.6 min, […], 3.0-3.1 min, 95% A to 5% A; Flow rate: 1.0 ml/min; Run time: 4.0 min; Injection volume: 5 μL.
Instruments: AP14000 liquid chromatography mass spectrometer, AB Sciex; Ion source: electrospray ionization source (ESI); Drying gas: N2, temperature 500° C.; Electrospray voltage: 5000 V; Detection mode: positive ion detection; Scanning mode: Reaction Monitoring (MRM) mode; Scanning time: 0.8401 s.
3. Data processing: The raw data were calculated according to the following formula: […]
The in vitro liver microsome intrinsic clearance rate (CLint) and liver intrinsic clearance rate (CLint,liver) were calculated by Ke.
(Microsomes from liver hold many membrane-bound enzymes, among them those of drug oxidation.)

Data set [4] addresses T1, PCSK9 protein (Homo sapiens, UniProt Q8NBP7).
T1 construct: purchased Sino biology (Sino Biological) 29698-H08H
Briefly: Binding ability to PCSK9 protein (HTRF). The settings on record: PCSK9-His, Alexa Fluor 647 probe compound. On the procedure: 1. Experimental objective: To detect the action of compounds to bind PCSK9 protein by an HTRF method.
3. Experimental data processing method: Four-parameter log(inhibitor) vs. response—Variable slope (four parameters) in XLit was used to perform non-linear fitting of the compound concentration and the corresponding inhibition rate, and IC50 was calculated.
A general note: In TR-FRET formats the signal depends on donor and acceptor labels being close together.

For data set [5], the system named is PCSK9 secreted by HepG2 cells. Put plainly: Effect on the concentration of PCSK9 secreted by HepG2 cells (ELISA). To be noted: Homo sapiens, 48 hours, PCSK9 in culture medium by ELISA. The data set is classed as cell-based. In outline: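 HepG2 cells treated with compound for 48 h at 37° C., 5% CO2. Secreted PCSK9 in medium quantified by sandwich ELISA (HRP detection, OD 450 nm) against a 0–10 ng/mL standard curve. Inhibition relative to control; IC50 fitted from concentration–inhibition data.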
(An ELISA detects its analyte on a solid surface through an enzyme-linked reagent.)

Broadly, the MRT is the average time that molecules of a dose stay in the body. A word on the Tmax: it is the time at which the peak concentration occurs. The microsomal CLint is the capacity of the preparation to metabolise the compound, expressed as a volume cleared per time. A lower microsomal CLint goes with slow turnover. A word on the pIC50: it is the negative decadic logarithm of the IC50, by convention in mol/L.

pIC50: −log10 of the molar value.

T1 sequence (Q8NBP7 153-692): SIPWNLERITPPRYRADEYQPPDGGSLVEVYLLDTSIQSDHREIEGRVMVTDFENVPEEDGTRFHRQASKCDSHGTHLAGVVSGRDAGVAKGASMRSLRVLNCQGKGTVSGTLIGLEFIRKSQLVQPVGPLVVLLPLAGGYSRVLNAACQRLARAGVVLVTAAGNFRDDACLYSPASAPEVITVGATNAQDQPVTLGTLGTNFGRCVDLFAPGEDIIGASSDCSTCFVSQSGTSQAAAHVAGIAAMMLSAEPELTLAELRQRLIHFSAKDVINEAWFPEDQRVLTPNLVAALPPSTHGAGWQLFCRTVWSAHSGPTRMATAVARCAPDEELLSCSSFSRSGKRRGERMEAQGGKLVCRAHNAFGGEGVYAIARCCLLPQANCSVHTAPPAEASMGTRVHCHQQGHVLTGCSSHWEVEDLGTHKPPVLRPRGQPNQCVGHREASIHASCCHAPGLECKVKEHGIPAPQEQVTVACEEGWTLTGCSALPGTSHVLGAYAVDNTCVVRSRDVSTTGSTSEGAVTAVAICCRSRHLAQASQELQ

As for `O=C1c2cccnc2CN1c1ccc(N[C@H]2CC[C@H](Nc3nc4cc(C(F)(F)F)ccn4n3)C2)nc1` [Example 12, 6-(6-(((1S,3S)-3-((7-(trifluoromethyl)-[1,2,4]triazolo[1,5-a]pyridin-2-yl)amino)cyclopentyl)amino)pyridin-3-yl)-6,7-dihydro-5H-pyrrolo[3,4-b]pyridin-5-one], in data set [1], the AUC(0-inf) stood at 9510 ng·h/mL, the half-life is 2.9 h, the mean residence time MRT is 2.8 h and the Cmax worked out at 4310 ng/mL. The Tmax in data set [1] turned out to be 0.25 h. Also, the “LDL-C change vs vehicle (%), Day 14” value in data set [2] (10 mpk) is given as −33.75%.
In data set [3], `O=c1nc(O)c(F)cn1-c1ccc(N[C@H]2CC[C@H](Nc3nc4cc(C(F)(F)F)ccn4n3)C2)nc1` [Example 110] yielded a half-life at 1 µM of 78.7 h and an intrinsic metabolic clearance (microsomal CLint) at 1 µM of 0.3 µL/min/mg. In addition, in data set [1], the AUC(0-inf) was determined as 11300 ng·h/mL, the half-life is 3 h, the MRT amounted to 2.6 h and the Cmax was found to be 2920 ng/mL. Further, the Tmax in data set [1] was determined as 1 h. Also, in data set [4], the negative-log IC50 (pIC50) is 7.73.
In the case of `O=C1c2ncccc2CN1c1cnc(N[C@H]2CC[C@H](Nc3nc4cc(C(F)(F)F)ccn4n3)C2)c(F)c1` [Example 112, 6-(5-fluoro-6-(((1S,3S)-3-((7-(trifluoromethyl)-[1,2,4]triazolo[1,5-a]pyridin-2-yl)amino)cyclopentyl)amino)pyridin-3-yl)-5,6-dihydro-7H-pyrrolo[3,4-b]pyridin-7-one], the pIC50 in data set [5] was 5.16. Moreover, in data set [1], the AUC(0-inf) was 33800 ng·h/mL, the half-life was 2.2 h, the mean residence time MRT is 4.7 h and the Cmax was found to be 5070 ng/mL. For the same compound, in data set [1], the Tmax stood at 1 h. The compound further gave a negative-log IC50 (pIC50) in data set [4] of 8.08. Further, the “LDL-C change vs vehicle (%), Day 14” value in data set [2] (10 mpk) is −38.14%.
As for `O=C1c2ncc(F)cc2CN1c1cnc(N[C@H]2CC[C@H](Nc3nc4cc(OC(F)F)ccn4n3)C2)c(F)c1` [Example 154], in data set [5], the pIC50 was 5.26. Also, in data set [1], the AUC(0-inf) came out at 13300 ng·h/mL, the half-life was 2.5 h, the MRT stood at 3.7 h and the Cmax came to 2640 ng/mL. In data set [1], the Tmax was 1 h. In addition, in data set [2] (10 mpk), the “LDL-C change vs vehicle (%), Day 14” value is on record as −35.66%.
In data set [3], `O=C1c2ccc(C(F)(F)F)nc2CN1c1cnc(N[C@H]2CC[C@H](Nc3nc4cc(OC(F)F)ccn4n3)C2)c(F)c1` [Example 159] registered a half-life at 1 µM of 20.1 h and a microsomal CLint at 1 µM of 1.15 µL/min/mg. In data set [1], the AUC(0-inf) amounted to 76800 ng·h/mL, the half-life was 9.8 h, the MRT came to 10.7 h and the Cmax was 7660 ng/mL. Further, the Tmax in data set [1] turned out to be 2 h. In addition, the negative logarithm of the IC50 (pIC50) in data set [4] was 7.77.
In data set [3], `O=C1c2ncccc2CN1c1cnc(N[C@H]2CC[C@H](Nc3nc4cc(F)ccn4n3)C2)c(F)c1` [Example 164] returned a half-life at 1 µM of 15.6 h and a microsomal CLint at 1 µM of 1.48 µL/min/mg. In data set [4], the pIC50 is 8.14.
In data set [3], `O=c1ccccn1-c1cnc(N[C@H]2CC[C@H](Nc3nc4cc(F)ccn4n3)C2)c(F)c1` [Example 186, 5′-fluoro-6′-(((1S,3S)-3-((7-fluoro-[1,2,4]triazolo[1,5-a]pyridin-2-yl)amino)cyclopentyl)amino)-2H-[1,3′-bipyridine]-2-one] displayed a half-life at 1 µM of 35.4 h and an intrinsic metabolic clearance (microsomal CLint) at 1 µM of 0.7 µL/min/mg. The negative-log IC50 (pIC50) in data set [4] is 8.07. Further, the “LDL-C change vs vehicle (%), Day 14” value in data set [2] (10 mpk) is reported as −51.19%.
In data set [3], `O=c1nc(O)ccn1-c1cnc(N[C@H]2CC[C@H](Nc3nc4cc(F)ccn4n3)C2)c(F)c1` [Example 188] displayed a half-life at 1 µM of 12.6 h and an intrinsic clearance (microsomal CLint) at 1 µM of 1.8 µL/min/mg. In addition, in data set [2] (10 mpk), the “LDL-C change vs vehicle (%), Day 14” value is given as −47.11%.
With `O=C1c2ccnn2CCN1c1cnc(N[C@H]2CC[C@H](Nc3nc4cc(F)ccn4n3)C2)c(F)c1` [Example 201], the “LDL-C change vs vehicle (%), Day 14” value in data set [2] (10 mpk) is given as −31.45%.
In the case of `O=C1c2ccnn2CCN1c1cnc(N[C@H]2CC[C@H](Nc3nc4cc(C(F)(F)F)ccn4n3)C2)c(F)c1` [Example 212], the “LDL-C change vs vehicle (%), Day 14” value in data set [2] (10 mpk) was −60.08%.
Take `O=c1ccccn1-c1ccc(N[C@H]2CC[C@H](Nc3nc4cc(F)ccn4n3)C2)nc1` [compound 1, 6′-(((1S,3S)-3-((7-fluoro-[1,2,4]triazolo[1,5-a]pyridin-2-yl)amino)cyclopentyl)amino)-2H-[1,3′-bipyridine]-2-one, reference compound]: in data set [2] (6 mpk), the “LDL-C change vs vehicle (%), Day 14” value was −31.52%.
